Test results taken from paper PMC7413297 (Journal of immunology (Baltimore, Md. : 1950), 2020).
Read-outs that look alike come from different tables or passages of the source. Ends that are not written are not given here. Peptide text beside a SMILES is read from it.

Target: HLA A*02:01 class I molecules (Homo sapiens, UniProt P04439, D140Y/D185E/D98H/E176V/E277Q/G131W/G231S/I119V/I121R/I166T/I218V/L300P/L318F/N151K/N90K/P208A/P217A/Q86G/Q94H/R138H/R169H/T345S)
Assay: MHC-peptide competitive binding assay
[1] = as standard assay but excluding protease inhibitors
[2] = reducing conditions, 1 mM 2-ME added
[3] = IC50 2-ME, reducing conditions, 1 mM 2-ME added
[4] = IC50 No Protease Inhibitors, as standard assay but excluding protease inhibitors

| Compound | IC50 No Protease Inhibitors [1] | IC50 2-ME [2] | IC50 | IC50 [3] | IC50 [4] |
| --- | --- | --- | --- | --- | --- |
| BISSBNPNL | 604 ng/mL | 1,260 ng/ml |  |  |  |
| BISSBNPNP | 17,100 ng/ml | 13,400 ng/ml |  |  |  |
| CISSBNPNL | 1,047 ng/ml | 618 ng/mL |  |  |  |
| CQWGRLWQL [reference compound] |  |  | 1.2 µM | 0.13 µM | 0.952 µM |
| HMTEVVRRC [reference compound] |  |  | 9.01 µM | 0.907 µM | 1.01 µM |
| ILBGTBLIV | 733 ng/mL | 1,547 ng/ml |  |  |  |
| ILCETBLIV | 104 ng/mL | 93 ng/mL |  |  |  |
| SCSRAIPQV [reference compound] |  |  | 1.53 µM | 0.207 µM | 0.551 µM |
| SLLMWITQB | 94 ng/mL |  |  |  |  |
| VLPDVFIRB | 3.3 ng/mL | 2.5 ng/mL |  |  |  |
| VLPDVFIRC [reference compound] |  |  | 0.454 µM | 0.0302 µM | 0.121 µM |

Other lines, results leading:

| IC50 No Protease Inhibitors [1] | IC50 2-ME [2] | IC50 | IC50 [3] | IC50 [4] | Compound |
| --- | --- | --- | --- | --- | --- |
| 14 ng/mL | 24 ng/mL |  |  |  | 1LBETBLIV |
|  |  | 0.458 µM | 0.304 µM | 0.323 µM | CC[C@H](C)[C@H](N)C(=O)N[C@@H](CC(C)C)C(=O)N[C@@H](CS)C(=O)N[C@@H](CCC(=O)O)C(=O)N[C@H](C(=O)N[C@@H](CS)C(=O)N[C@@H](CC(C)C)C(=O)N[C@H](C(=O)N[C@H](C(=O)O)C(C)C)[C@@H](C)CC)[C@@H](C)O [reference compound] (H-ILCETCLIV-OH) |
|  |  | 0.206 µM | 0.244 µM | 0.582 µM | CC[C@H](C)[C@H](N)C(=O)N[C@@H](CC(C)C)C(=O)N[C@@H](CS)C(=O)NCC(=O)N[C@H](C(=O)N[C@@H](CS)C(=O)N[C@@H](CC(C)C)C(=O)N[C@H](C(=O)N[C@H](C(=O)O)C(C)C)[C@@H](C)CC)[C@@H](C)O [reference compound] (H-ILCGTCLIV-OH) |
|  |  |  | 12.6 µM | 3.09 µM | ACDPHSGHFV [reference compound] |
| 573 ng/mL | 250 ng/mL |  |  |  | BISSCNPNL |
| 121 ng/mL | 93 ng/mL |  |  |  | BQWGRLWQL |
| 58 ng/mL | 82 ng/mL |  |  |  | ILBETCLIV |
| 839 ng/mL | 885 ng/mL |  |  |  | ILCGTBLIV |
| 7.2 ng/mL | 14 ng/mL |  |  |  | RLPRIFBSB |
| 11 ng/mL | 27 ng/mL |  |  |  | RLPRIFCSB |
|  |  | 12.3 µM | 2.48 µM | 7.35 µM | SCSRAVPQV [reference compound] |
